# Assay results taken from PMC8402619 (Viruses, 2021).
# Assays:
# Type in all cases: in vitro ADME
# OAT1 = biological target: T1, OAT1 (Homo sapiens, UniProt Q4U2R8); assay: Inhibition of transporter-mediated probe uptake in MDCKII-OAT1 cells
# T1 construct: expressed in transfected cells; host or cells: MDCKII
# T1 sequence (Q4U2R8 1-563): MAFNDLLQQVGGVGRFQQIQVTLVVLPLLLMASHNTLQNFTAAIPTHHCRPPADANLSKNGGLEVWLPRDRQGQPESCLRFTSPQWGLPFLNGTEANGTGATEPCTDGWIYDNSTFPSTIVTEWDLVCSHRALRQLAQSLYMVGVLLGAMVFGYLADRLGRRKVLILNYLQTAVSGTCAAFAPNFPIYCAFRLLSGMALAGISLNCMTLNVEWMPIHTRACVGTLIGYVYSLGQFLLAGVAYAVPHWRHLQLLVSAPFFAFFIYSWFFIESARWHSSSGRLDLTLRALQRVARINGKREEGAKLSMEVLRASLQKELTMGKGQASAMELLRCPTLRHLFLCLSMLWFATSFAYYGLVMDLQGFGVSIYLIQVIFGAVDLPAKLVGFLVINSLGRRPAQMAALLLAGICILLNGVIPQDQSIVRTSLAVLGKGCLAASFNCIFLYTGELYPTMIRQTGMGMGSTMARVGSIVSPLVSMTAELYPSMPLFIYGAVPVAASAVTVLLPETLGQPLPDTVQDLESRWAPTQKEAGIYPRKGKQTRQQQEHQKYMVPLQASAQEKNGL
# [1] = Distribution between red blood cells and plasma in human blood
# [2] = Plasma protein binding by equilibrium dialysis, rabbit plasma; conditions: pH 7.4
# OAT3 = biological target: T2, OAT3 (Homo sapiens, UniProt Q8TCC7); assay: Islatravir uptake as substrate, MDCKII vs MDCKII-OAT3 cells
# T2 construct: expressed in transfected cells; host or cells: MDCKII
# T2 sequence (Q8TCC7 1-542): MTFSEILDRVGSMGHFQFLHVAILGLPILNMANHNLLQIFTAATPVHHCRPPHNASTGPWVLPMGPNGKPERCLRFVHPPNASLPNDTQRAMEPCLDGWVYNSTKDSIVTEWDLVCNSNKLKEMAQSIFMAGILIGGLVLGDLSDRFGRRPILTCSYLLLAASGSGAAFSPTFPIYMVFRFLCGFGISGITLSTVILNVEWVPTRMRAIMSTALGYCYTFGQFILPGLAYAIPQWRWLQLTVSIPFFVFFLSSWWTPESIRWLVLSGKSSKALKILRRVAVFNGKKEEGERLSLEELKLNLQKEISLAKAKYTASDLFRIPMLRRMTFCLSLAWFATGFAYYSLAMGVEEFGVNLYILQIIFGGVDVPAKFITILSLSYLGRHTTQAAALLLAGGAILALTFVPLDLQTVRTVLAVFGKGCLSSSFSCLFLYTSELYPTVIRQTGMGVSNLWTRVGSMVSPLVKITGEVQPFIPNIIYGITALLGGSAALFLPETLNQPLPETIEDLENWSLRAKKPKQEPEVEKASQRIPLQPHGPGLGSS
# CYP2C9 = CYP2C9 (Homo sapiens, UniProt P11712); assay: Reversible CYP inhibition in pooled human liver microsomes
# Chain of CYP2C9 (P11712 whole entry): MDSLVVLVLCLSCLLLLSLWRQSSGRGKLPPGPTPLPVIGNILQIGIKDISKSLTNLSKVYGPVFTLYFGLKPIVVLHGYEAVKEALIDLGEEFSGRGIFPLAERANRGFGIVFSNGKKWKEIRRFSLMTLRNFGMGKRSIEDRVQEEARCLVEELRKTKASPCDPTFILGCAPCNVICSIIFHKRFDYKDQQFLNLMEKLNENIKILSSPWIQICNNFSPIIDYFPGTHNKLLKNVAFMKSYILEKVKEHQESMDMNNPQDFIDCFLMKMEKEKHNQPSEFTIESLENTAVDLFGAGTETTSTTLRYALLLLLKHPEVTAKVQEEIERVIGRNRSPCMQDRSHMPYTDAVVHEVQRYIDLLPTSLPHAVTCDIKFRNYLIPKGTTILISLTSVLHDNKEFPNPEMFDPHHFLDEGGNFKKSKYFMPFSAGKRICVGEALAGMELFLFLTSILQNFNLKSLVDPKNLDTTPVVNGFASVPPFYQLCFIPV
# MATE1 = biological target: T3, MATE1 (Homo sapiens, UniProt Q96FL8); assay: Islatravir uptake as substrate, CHO-K1 vs CHO-K1-MATE1 cells
# T3 construct: expressed in transfected cells; host or cells: CHO-K1
# T3 sequence (Q96FL8 1-570): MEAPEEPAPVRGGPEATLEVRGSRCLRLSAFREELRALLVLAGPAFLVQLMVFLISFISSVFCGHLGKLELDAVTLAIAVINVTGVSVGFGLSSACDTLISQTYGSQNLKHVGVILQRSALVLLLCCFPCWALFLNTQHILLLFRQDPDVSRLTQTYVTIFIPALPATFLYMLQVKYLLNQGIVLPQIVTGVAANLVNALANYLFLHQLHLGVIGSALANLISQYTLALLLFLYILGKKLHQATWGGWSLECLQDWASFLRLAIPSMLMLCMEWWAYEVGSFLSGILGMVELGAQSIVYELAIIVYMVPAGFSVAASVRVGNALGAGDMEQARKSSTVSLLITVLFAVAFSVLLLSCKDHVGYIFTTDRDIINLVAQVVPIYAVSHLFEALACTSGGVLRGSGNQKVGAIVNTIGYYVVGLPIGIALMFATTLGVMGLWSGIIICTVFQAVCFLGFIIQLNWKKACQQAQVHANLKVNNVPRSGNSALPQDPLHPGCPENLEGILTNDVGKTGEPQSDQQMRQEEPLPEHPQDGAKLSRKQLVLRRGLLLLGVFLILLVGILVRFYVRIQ
# MRP2 = biological target: T4, MRP2 (Homo sapiens, UniProt Q92887); assay: Inhibition of ATP-dependent probe uptake in Sf9 membrane vesicles; conditions: MRP2-mediated ATP-dependent uptake of ethacrynic acid glutathione conjugate
# T4 construct: purchased Thermo Fisher Scientific; host or cells: Sf9
# T4 sequence (Q92887 whole entry): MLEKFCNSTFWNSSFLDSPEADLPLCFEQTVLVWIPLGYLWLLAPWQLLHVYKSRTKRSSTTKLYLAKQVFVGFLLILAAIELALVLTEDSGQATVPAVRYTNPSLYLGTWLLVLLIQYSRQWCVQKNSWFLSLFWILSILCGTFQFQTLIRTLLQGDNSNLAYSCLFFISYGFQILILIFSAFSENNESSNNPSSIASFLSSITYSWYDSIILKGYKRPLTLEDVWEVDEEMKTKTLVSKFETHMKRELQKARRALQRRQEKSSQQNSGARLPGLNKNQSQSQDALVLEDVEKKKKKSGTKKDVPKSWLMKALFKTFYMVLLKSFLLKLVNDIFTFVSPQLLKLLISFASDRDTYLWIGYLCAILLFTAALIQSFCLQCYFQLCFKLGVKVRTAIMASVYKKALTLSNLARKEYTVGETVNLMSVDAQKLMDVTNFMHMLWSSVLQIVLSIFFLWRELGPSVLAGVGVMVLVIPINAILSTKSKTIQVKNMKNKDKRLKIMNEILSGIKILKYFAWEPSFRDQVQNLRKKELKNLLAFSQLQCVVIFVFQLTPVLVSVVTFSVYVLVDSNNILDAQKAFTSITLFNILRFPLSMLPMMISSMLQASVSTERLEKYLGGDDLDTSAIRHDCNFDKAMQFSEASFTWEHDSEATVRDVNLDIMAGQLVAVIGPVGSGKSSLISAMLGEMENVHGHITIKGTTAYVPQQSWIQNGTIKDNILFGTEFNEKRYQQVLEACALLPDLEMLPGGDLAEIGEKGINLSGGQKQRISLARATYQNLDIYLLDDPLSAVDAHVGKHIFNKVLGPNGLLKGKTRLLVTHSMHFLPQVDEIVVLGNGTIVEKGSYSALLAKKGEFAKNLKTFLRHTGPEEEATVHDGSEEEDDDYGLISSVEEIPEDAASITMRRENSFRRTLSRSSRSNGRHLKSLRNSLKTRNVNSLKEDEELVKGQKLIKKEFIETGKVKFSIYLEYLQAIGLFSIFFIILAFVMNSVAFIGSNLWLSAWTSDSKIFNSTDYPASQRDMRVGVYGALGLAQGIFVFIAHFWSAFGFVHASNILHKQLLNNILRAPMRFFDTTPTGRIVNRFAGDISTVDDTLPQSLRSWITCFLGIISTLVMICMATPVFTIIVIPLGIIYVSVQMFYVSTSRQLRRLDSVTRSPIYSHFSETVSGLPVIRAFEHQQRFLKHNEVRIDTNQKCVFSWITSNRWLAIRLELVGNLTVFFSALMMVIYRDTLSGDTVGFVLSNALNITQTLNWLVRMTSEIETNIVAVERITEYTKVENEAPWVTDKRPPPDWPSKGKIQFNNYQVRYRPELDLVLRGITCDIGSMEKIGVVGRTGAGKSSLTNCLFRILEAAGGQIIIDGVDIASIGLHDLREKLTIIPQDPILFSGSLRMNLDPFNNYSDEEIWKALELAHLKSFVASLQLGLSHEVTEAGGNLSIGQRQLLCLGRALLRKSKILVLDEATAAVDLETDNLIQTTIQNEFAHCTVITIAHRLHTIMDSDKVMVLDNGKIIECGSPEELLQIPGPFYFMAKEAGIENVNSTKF
# UGT1A1 = biological target: T5, UGT1A1 (Homo sapiens, UniProt P22309)
# T5 sequence (P22309 26-533): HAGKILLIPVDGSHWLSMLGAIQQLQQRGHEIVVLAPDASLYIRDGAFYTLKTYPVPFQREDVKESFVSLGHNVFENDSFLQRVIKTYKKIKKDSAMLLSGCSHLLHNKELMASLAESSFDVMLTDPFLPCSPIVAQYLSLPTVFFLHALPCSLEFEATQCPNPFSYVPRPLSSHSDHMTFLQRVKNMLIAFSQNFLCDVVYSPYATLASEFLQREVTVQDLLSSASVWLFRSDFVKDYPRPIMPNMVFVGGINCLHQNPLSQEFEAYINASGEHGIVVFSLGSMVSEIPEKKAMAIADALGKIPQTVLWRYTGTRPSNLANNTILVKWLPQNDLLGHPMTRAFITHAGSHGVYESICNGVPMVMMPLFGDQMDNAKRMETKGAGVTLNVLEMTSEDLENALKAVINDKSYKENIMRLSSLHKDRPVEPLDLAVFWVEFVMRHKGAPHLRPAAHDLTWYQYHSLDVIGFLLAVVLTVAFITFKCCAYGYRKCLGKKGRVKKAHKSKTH
smiles,measurement,setting,value
"C#C[C@]1(CO)O[C@@H](n2cnc3c(N)nc(F)nc32)C[C@@H]1O [Islatravir, 4′-Ethynyl-2-fluoro-2′-deoxyadenosine]",IC50,"OAT1; OAT1-mediated cidofovir uptake, read-out: Islatravir IC50",> 100 µM
same,"Maximum Unbound Plasma Concentration (Imax,u) to IC50 Ratio","OAT1; OAT1, 60 mg, Cmax 1.01 µM, fu,p 0.96",<0.010 µM
same,DDI Potential,"OAT1; OAT1 inhibition, FDA, EMA, PMDA guidance",Low risk
same,concentration dependence of blood:plasma partitioning,[1]; 0.01 to 10 µM,did not exhibit concentration-dependent partitioning
same,"blood plasma ratio at 60 min, 0.1 µM","[1]; whole blood, human blood, 0.1 µM, ± standard error, read-out: mean blood:plasma concentration ratio",1.3
same,"fraction unbound at 24 h, 0.1 µM",[2],> 0.84
same,Islatravir Uptake Transporter-Expressing Cells,"OAT3; MDCKII-OAT3, 1 µM [3H]islatravir, 5 min, mean ± SD, n = 3",0.85 ± 0.06 pmole/10^6 Cells
same,Fold-Difference,"OAT3; OAT3, uptake into transporter-expressing cells to control cells, 5 min",1.23
same,Islatravir Uptake Control Cells,"OAT3; OAT3 row, MDCKII control cells, 1 µM [3H]islatravir, 5 min, mean ± SD, n = 3",0.69 ± 0.07 pmole/10^6 Cells
same,Conclusions,OAT3; OAT3 substrate assessment,Non-substrate
same,DDI Potential,"CYP2C9; CYP2C9 reversible inhibition, FDA, EMA, PMDA guidance",Low risk
same,"Maximum Unbound Plasma Concentration (Imax,u) to Ki,u Ratio","CYP2C9; CYP2C9 reversible, 60 mg, Cmax 1.01 µM, fu,p 0.96, Ki,u = IC50/2",<0.019 µM
same,IC50,"CYP2C9; reversible, CYP2C9 diclofenac 4′-hydroxylation, read-out: Islatravir IC50",> 100 µM
same,Islatravir Uptake Transporter-Expressing Cells,"MATE1; CHO-K1-MATE1, 2 µM [14C]islatravir, 20 min, mean ± SD, n = 3",2.94 ± 0.20 pmole/10^6 Cells
same,Fold-Difference,"MATE1; MATE1, uptake into transporter-expressing cells to control cells, 20 min",1.01
same,Islatravir Uptake Control Cells,"MATE1; MATE1 row, CHO-K1 control cells, 2 µM [14C]islatravir, 20 min, mean ± SD, n = 3",2.90 ± 0.27 pmole/10^6 Cells
same,Conclusions,MATE1; MATE1 substrate assessment,Non-substrate
same,IC50,MRP2,> 100 µM
same,DDI Potential,"UGT1A1; UGT1A1 reversible inhibition, FDA, EMA, PMDA guidance",Low risk ^g
same,"Intestinal Concentration (Igut) to Ki,u Ratio","UGT1A1; UGT1A1 reversible, Igut = 60 mg/250 mL = 818 µM",<16.4 µM
same,IC50,"UGT1A1; reversible, UGT1A1 estradiol 3-glucuronidation, read-out: Islatravir IC50",> 100 µM
